Measured values published in the supplement of paper PMC3974653.
Structures can show the parent of a compound that is named as a salt.

Tested on: MTT (mouse pheochromocytoma)
Experiment: IC50 of cell viability (ATP content)
Details: (24 or 48 h)
In short: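 Each well of a white 1536-well plate received 5 µl of MTT mouse pheochromocytoma cells at 200,000 cells/ml in DMEM containing 5% FBS and 1% horse serum. After overnight culture at 37°C, 5% CO2, cells were exposed for 24 or 48 hrs to 23 nl of library compound in DMSO, pinned at 8 final concentrations from 0.5 nM to 46 µM. CellTiter-Glo luminescence was read after 15 minutes, and IC50 was obtained from a four-parameter logistic fit of signals normalised to positive-control and DMSO wells.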

SMILES | IC50 of cell viability
OC(COC1=CC=CC2=C1C(=O)\C=C(/O2)C(O)=O)COC3=CC=CC4=C3C(=O)\C=C(/O4)C(O)=O [Cromolyn sodium] | > 46 µM
Cc1cc(C)c(NC(=O)C[C@H](CC(=O)[O-])c2cccc3ccccc23)c(C(=O)N2CCC3(CCCC3)CC2)c1.[Na+] [CR 2945] | > 46 µM
O=C(NO)c1ccccc1 [Benzhydroxamic acid] | > 46 µM
C[N@+]1([O-])[C@@H]2C[C@H](OC(=O)[C@@H](CO)c3ccccc3)C[C@@H]1[C@H]1O[C@H]12 [AMINOXYSCOPOLAMINE HYDROBROMIDE] | > 46 µM
Cl.O=C(COc1ccc(Cl)cc1)N1CCN(Cc2ccc3c(c2)OCO3)CC1 [FIPEXIDE HYDROCHLORIDE] | > 46 µM
CCCCc1cc2ccccc2c(OCCN(C)C)n1 [Dimethisoquin hydrochloride] | > 46 µM
C[C@@H](O[C@@H]1OCCN(Cc2nc(=O)[nH][nH]2)[C@@H]1c1ccc(F)cc1)c1cc(C(F)(F)F)cc(C(F)(F)F)c1 [Aprepitant] | > 46 µM
CC(C)(C)c1ccc2c(S(=O)(=O)[O-])c(C(C)(C)C)ccc2c1 [Dibunic acid] | > 46 µM
C[C@@H](N)C(=O)O [D-ALANINE] | > 46 µM
CC(C)(C)CC(C)(C)c1cc(Cc2cc(C(C)(C)CC(C)(C)C)cc(-n3nc4ccccc4n3)c2O)c(O)c(-n2nc3ccccc3n2)c1 [BISOCTRIZOLE] | > 46 µM
CCOC(CN1CCN(CC(C)C(=O)c2ccccc2)CC1)c1ccccc1 (centres undefined) [EPRAZINONE HYDROCHLORIDE] | > 46 µM
CO[C@H]1O[C@@H]2O[C@@]3(C)CC[C@H]4[C@H](C)CC[C@@H]([C@H]1C)[C@@]24OO3 [Artemetero] | > 46 µM
O=C(O)CCC(=O)C(=O)O [2-Oxopentanedioic acid] | > 46 µM
O=C(O)COc1ccccc1/C=N/NC(=O)c1ccncc1 [Aconiazida] | > 46 µM
NC(CS)C(=O)O (centres undefined) [CYSTEINE HYDROCHLORIDE] | > 46 µM
CC(C)(O/N=C(\C(=O)N[C@@H]1C(=O)N2C(C(=O)[O-])=C(C[n+]3ccccc3)CS[C@@H]12)c1csc(N)n1)C(=O)O.O.O.O.O.O [Ceftazidime pentahydrate] | > 46 µM
O=C1OC(CO)C(O)C(O)C1O (centres undefined) [GLUCONOLACTONE] | > 46 µM
CN1CCC(CC1)=C2C3=C(C=CC=C3)\C=C/C4=C2C=CC=C4 [CYPROHEPTADINE] | > 46 µM

SMILES | IC50 of cell viability
CCN(C)C(=O)Oc1cccc([C@H](C)N(C)C)c1 [RIVASTIGMINE TARTRATE] | > 46 µM
C[C@@]12CCC(=O)/C=C1/C=C\C3C2CC[C@]4(C)C3CC[C@@]45CCC(=O)O5 (some centres undefined) [CANRENONE] | > 46 µM
NCCN [Ethylenediamine] | > 46 µM
Nc1ccc(C(=O)Oc2ccccc2)c(O)c1 [FENAMISAL] | > 46 µM
O=P1(N(CCCl)CCCl)NC(OO)CCO1 (centres undefined) [4-Hydroperoxy Cyclophosphamide] | > 46 µM
CC(C)(Oc1ccc(C2CC2(Cl)Cl)cc1)C(=O)O (centres undefined) [Ciprofibrate] | > 46 µM
N=C(N)N1CCc2ccccc2C1 [Debrisoquin sulfate] | > 46 µM
O=C1CC[C@H](C(=O)N2CCCCC2)N1 [FASORACETAM HYDRATE] | > 46 µM
C=CCC1([C@@H](C)CCC)C(=O)NC(=O)NC1=O [S-(-)-Secobarbital] | > 46 µM
C=C1C(n2cnc3c(O)nc(N)nc32)C[C@H](O)[C@H]1CO (some centres undefined) [ENTECAVIR] | > 46 µM
COC(=O)C(c1ccccc1)C1CCCCN1.[Cl-].[H+] (centres undefined) [Methylphenidate hydrochloride] | > 46 µM
NC(=O)NNc1ccccc1 [Fenicarbazida] | > 46 µM
N[S+](=O)([O-])c1cc2c(cc1Cl)NCN[S+]2(=O)[O-] [HYDROCHLOROTHIAZIDE] | > 46 µM
CNC1(c2ccccc2Cl)CCCCC1=O (stereo in doubt) [(S)-(-)-Ketamine] | > 46 µM
CCCCCCCCCCCCCCCCCC(=O)OCCO [Glycol stearate] | > 46 µM
CC12CCC(C1)C(C)(C)C2=O (centres undefined) [FENCHONE] | > 46 µM
Cc1nc[nH]c1CC1CCc2c(C)c3ccccc3n2C1=O (centres undefined) [Fabesetron] | > 46 µM
C[C@H]1CN(C2CCC(C#N)(c3ccc(F)cc3)CC2)CC[C@@]1(C(=O)O)c1ccccc1 (some centres undefined) [Levocabastine hydrochloride] | > 46 µM

Continued, values first:

IC50 of cell viability | SMILES
> 46 µM | CCOC(=O)Nc1ccc2c(c1)N(C(=O)CN(C)C)c1ccccc1CC2 [Tiracizine]
> 46 µM | C[N+]1(CCCCC[N+]2(C)CCCC2)CCCC1.O=C([O-])[C@@H](O)[C@@H](O)C(=O)O.O=C([O-])[C@@H](O)[C@@H](O)C(=O)O [Pentolinium bitartrate]
> 46 µM | c1ccc2c(CCC3CC[NH2+]CC3)c[nH]c2c1 [Indalpine]
> 46 µM | CCCOC(=O)c1ccccc1 [PROPYL BENZOATE]
> 46 µM | Nc1ccc([S+](=O)([O-])Nc2ccnn2-c2ccccc2)cc1 [Sulfaphenazole]
> 46 µM | C[C@]12CC(=O)[C@H]3[C@@H](CC\C4=C\C(=O)\C=C/[C@]34C)[C@@H]1CC[C@]2(O)C(=O)CO [Prednisone]
> 46 µM | COc1cc(C[C@H]2NCCc3cc(O)c(O)cc32)cc(OC)c1OC [Trimethoquinol]
> 46 µM | CC(=O)Nc1ccc(/C=N/NC(N)=S)cc1 [THIOACETAZONUM]
> 46 µM | C[n+]1ccccc1/C=N\O [Pralidoxime chloride]
> 46 µM | O=[S+]([O-])(O)CCS [MESNA]
> 46 µM | CCCCCCCC/C=C\CCCCCCCC(=O)OC[C@@H](O)[C@H]1OC[C@H](O)[C@H]1O [Sorbitan, mono-(9Z)-9-octadecenoate]
> 46 µM | C=C1CC[C@H](O)C/C1=C/C=C1\CCC[C@]2(C)[C@@H]([C@H](C)CC[C@@H](O)C(C)(C)O)CC[C@@H]12 [SECALCIFEROL]
> 46 µM | CCCC1=NC(=C([N]1CC2=CC=C(C=C2)C3=CC=CC=C3C4=N[NH]N=N4)C(=O)OCC/5=C(C)/OC(=O)O5)C(C)(C)O [OLMESARTAN MEDOXOMIL]
> 46 µM | CN[C@@H](C)CC\C=C(/C)C.CN[C@@H](C)CC\C=C(/C)C.O[C@@H]([C@@H](O)[C@@H](O)C(O)=O)[C@H](O)C(O)=O [Isometheptene mucate]
> 46 µM | O=C1N=C2SCCN2C(=O)C1Cc1ccc(Cl)cc1 (centres undefined) [NUCLOMEDONUM]
> 46 µM | CCOC(=O)N1CCC(=C2c3ccc(Cl)cc3CCc3cccnc32)CC1 [LORATADINE]
> 46 µM | Cc1ccc(O)c2ncccc12 [Tiliquinol]
> 46 µM | C[S+](=O)([O-])CCNCc1ccc(-c2ccc3ncnc(Nc4ccc(OCc5cccc(F)c5)c(Cl)c4)c3c2)o1 [LAPATINIB TOSILATE HYDRATE]
